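Tested at 5 concentrations; 48 h exposure; 96-well plates; endpoints linearly interpolated, else capped at highest concentration. At the GI50, growth is halved.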 The source made the active and inactive calls. Cut-off read from the data, not from the text of the source: active = GI50 up to about 1.1 µM and inactive = higher.
Assays:
Assay in all cases: NCI anticancer screen, dose series, 48 h
MOLT-4 = tested on: MOLT-4
SNB-19 = tested on: SNB-19
SK-MEL-28 = tested on: SK-MEL-28
IGROV-1 = tested on: IGROV-1
MDA-N = tested on: MDA-N
NCI-H23 = tested on: NCI-H23
UACC-62 = tested on: UACC-62
786-0 = tested on: 786-0
NCI-H226 = tested on: NCI-H226
MDA-MB-435 = tested on: MDA-MB-435
HCT-15 = tested on: HCT-15
UO-31 = tested on: UO-31
MCF7 = tested on: MCF7
SF-539 = tested on: SF-539
Malme-3M = tested on: Malme-3M
ACHN = tested on: ACHN
A498 = tested on: A498
NCI-H522 = tested on: NCI-H522
SN12C = tested on: SN12C
RXF 393 = tested on: RXF 393

Compound	GI50 (MOLT-4)	GI50 (SNB-19)	GI50 (SK-MEL-28)	GI50 (IGROV-1)	GI50 (MDA-N)	GI50 (NCI-H23)	GI50 (UACC-62)	GI50 (786-0)	GI50 (NCI-H226)	GI50 (MDA-MB-435)	GI50 (HCT-15) [µM]	GI50 (UO-31)	GI50 (MCF7)	GI50 (SF-539)	GI50 (Malme-3M)	GI50 (ACHN)	GI50 (A498)	GI50 (NCI-H522)	GI50 (SN12C)	GI50 (RXF 393)
COc1c(O)ccc2c1CN1CCc3cc4c(cc3C1C2)OCO4 (stereo not drawn)	2.43 µM (inactive)	31.3 µM (inactive)	45.1 µM (inactive)	28.6 µM (inactive)	26.4 µM (inactive)	36.2 µM (inactive)	27.5 µM (inactive)	23.9 µM (inactive)	44.5 µM (inactive)	21.8 µM (inactive)	21.6	29.6 µM (inactive)	21.6 µM (inactive)	40 µM (inactive)	33.9 µM (inactive)	16.3 µM (inactive)	20.8 µM (inactive)	7.43 µM (inactive)	27.7 µM (inactive)	12.6 µM (inactive)
O=C(CC(=O)N1N=C(N2CCCCC2)CC1c1ccccc1)Nc1ccccc1 (stereo not drawn)	> 100 µM (inactive)	> 100 µM (inactive)	> 100 µM (inactive)	> 100 µM (inactive)	> 100 µM (inactive)	> 100 µM (inactive)	> 100 µM (inactive)	> 100 µM (inactive)	> 100 µM (inactive)	> 100 µM (inactive)	> 100	> 100 µM (inactive)	> 100 µM (inactive)	> 100 µM (inactive)	> 100 µM (inactive)	> 100 µM (inactive)	> 100 µM (inactive)	> 100 µM (inactive)	> 100 µM (inactive)	> 100 µM (inactive)
C/C=C/[C@@H]1[C@H]2C(=O)[C@]3(Cl)[C@@H](/C=C/C)[C@@H]3C(=O)[C@@]12Cl	7.16 µM (inactive)	> 100 µM (inactive)	> 100 µM (inactive)	> 100 µM (inactive)	> 100 µM (inactive)	> 100 µM (inactive)	> 100 µM (inactive)	46.8 µM (inactive)	> 100 µM (inactive)	> 100 µM (inactive)	> 100	> 100 µM (inactive)	> 100 µM (inactive)	> 100 µM (inactive)	> 100 µM (inactive)	> 100 µM (inactive)	> 100 µM (inactive)	> 100 µM (inactive)	> 100 µM (inactive)	55.3 µM (inactive)
COc1cc(CNC(=O)CCCCCCCCCCSSCCCCCCCCCCC(=O)NCc2ccc(O)c(OC)c2)ccc1O	> 10 µM (inactive)	> 10 µM (inactive)	> 10 µM (inactive)	> 10 µM (inactive)	> 10 µM (inactive)	> 10 µM (inactive)	> 10 µM (inactive)	> 10 µM (inactive)	> 10 µM (inactive)	> 10 µM (inactive)	> 10	–	> 10 µM (inactive)	> 10 µM (inactive)	> 10 µM (inactive)	> 10 µM (inactive)	> 10 µM (inactive)	0.918 µM (active)	> 10 µM (inactive)	0.184 µM (active)
Nc1nc(S)c2c(N)n[nH]c2c1C(=O)Nc1ccccc1	> 100 µM (inactive)	> 100 µM (inactive)	> 100 µM (inactive)	> 100 µM (inactive)	50.2 µM (inactive)	> 100 µM (inactive)	> 100 µM (inactive)	> 100 µM (inactive)	> 100 µM (inactive)	42 µM (inactive)	> 100	> 100 µM (inactive)	> 100 µM (inactive)	> 100 µM (inactive)	> 100 µM (inactive)	–	> 100 µM (inactive)	> 100 µM (inactive)	> 100 µM (inactive)	> 100 µM (inactive)
CC1=C2C(=O)c3ccccc3C(=O)[C@H]2[C@H]2CCO[C@H]2O1	30.5 µM (inactive)	37 µM (inactive)	24.3 µM (inactive)	14.2 µM (inactive)	19.2 µM (inactive)	20.1 µM (inactive)	20.4 µM (inactive)	18.5 µM (inactive)	71 µM (inactive)	20.7 µM (inactive)	25.6	18.1 µM (inactive)	0.3 µM (active)	22.1 µM (inactive)	19.1 µM (inactive)	20.9 µM (inactive)	> 100 µM (inactive)	16.3 µM (inactive)	20.9 µM (inactive)	14.4 µM (inactive)
